Source: US20250197420A1, “MACROCYCLIC COMPOUNDS, COMPOSITIONS, AND METHODS OF USING THEREOF” (Sionna Therapeutics Inc., priority 2022, published 2025)

Legend:
[1] = biological target: T1, Purified recombinant NBD1 (Homo sapiens, UniProt P13569); experiment: Aggregation analysis using differential static light scattering (DSLS): thermal stability of NBD1; type: binding; details: NBD1 0.2 mg/ml; Tagg of compound well minus average Tagg of DMSO control wells
T1 construct: Purified recombinant NBD1 was produced using previously described methods; made in house
T1 sequence (P13569 423-646 limits assumed): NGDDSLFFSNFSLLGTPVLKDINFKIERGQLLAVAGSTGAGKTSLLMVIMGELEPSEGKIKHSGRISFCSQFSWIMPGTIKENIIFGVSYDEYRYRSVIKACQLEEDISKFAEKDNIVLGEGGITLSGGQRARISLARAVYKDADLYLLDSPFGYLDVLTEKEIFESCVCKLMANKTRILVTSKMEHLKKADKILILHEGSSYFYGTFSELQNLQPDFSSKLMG
How it was run: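 ΔTagg is compound-well aggregation temperature minus the DMSO-control mean, each Tagg being the inflection point of light scattering measured by DSLS during a 1 °C/min ramp up to 70 °C. The protein was purified NBD1 (0.2 mg/ml) in pH 7.6 buffer containing 2 mM ATP, 5 mM MgCl2 and 1% glycerol.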

[2] = tested on: Primary human bronchial epithelial cells from a ΔF508 homozygous CF donor (CF-HBE cells); experiment: TECC24 recording of CFTR-mediated transepithelial chloride transport, AUC fold over benchmark VX-809 @10 μM; type: cell-based; details: 48 hours incubation, AUC of forskolin-stimulated IEQ
Method: The effects of a test agent on CFTR-mediated transepithelial chloride transport is measured using TECC24 recording analysis. Test agents are solubilized in DMSO. Solubilized test agents are mixed with incubation medium containing DMEM/F12, Ultroser G (0.5%; Crescent Chemical, catalog #67042), Hyclone Fetal Clone II (2%; GE Healthcare, catalog #SH30066.02), bovine brain extract (0.25%; Lonza, catalog #CC-4098), insulin ([…]), IL-13 (10 ng/mL), hydrocortisone (20 nM), transferrin ([…]), triiodothyronine (500 nM), ethanolamine (250 nM), epinephrine (1.5 μM), phosphoethanolamine (250 nM), and retinoic acid (10 nM). Primary human bronchial epithelial cells from a ΔF508 homozygous CF donor (CF-HBE cells; from University of North Carolina Cystic Fibrosis Tissue Procurement Center), grown on Transwell HTS 24-well cell culture inserts (Costar, catalog #3378), are exposed to test agents or controls dissolved in incubation medium. The CF-HBE cells are cultured at 36.5° C. for 48 hours before TECC24 recordings are performed in the presence or absence of test agent, a positive control or vehicle (DMSO).
Following incubation, the transwell cell culture inserts containing the test agent or control-treated CF-HBE cells are loaded onto a TECC24 apparatus (TECC v7 or MTECC v2; EP Design) to record the transepithelial voltage (VT) and resistance (TEER) using 4 AgCl electrodes per well configured in current-clamp mode. The apical and basolateral bath solutions both contain (in mM) 140 NaCl, 5 KCl, 2 CaCl2), 1 MgCl2, 10 Hepes, and 10 glucose (adjusted to pH 7.4 with NaOH). To inhibit basal Na+ absorption, the ENaC inhibitor benzamil (10 μM) is added to the bath. Then, the adenylate cyclase activator, forskolin (10 μM), is added to the bath to activate CFTR. The forskolin-stimulated Cl− transport is halted by addition of CFTR inhibitor-172 (20 μM) to the bath at the end of the experiment to confirm specificity. VT and TEER recordings are digitally acquired at routine intervals using TECC or MTECC software (EP Design). VT and TEER are transformed into equivalent transepithelial Cl− current (IEQ), and the Area Under the Curve (AUC) of the IEQ time course between forskolin and CFTR inhibitor-172 addition is generated using Excel (Microsoft). Efficacy is expressed as the ratio of the test agent AUC divided by vehicle AUC. EC50s based on AUC are generated using the non-linear regression log(agonist) vs. response function in Prism software (Graphpad) with HillSlope fixed=1.
If a test agent increases the AUC of the forskolin-stimulated IEQ relative to VX-809 in CF-HBE cells, and this increase is inhibited by CFTR inhibitor-172, then the test agent is considered a CFTR corrector. TECC assay efficacy is expressed as the ratio of the test agent AUC divided by VX-809 AUC. As set forth in Table 2 below, a TECC value less than 3 is marked “A”; a value between 3 and 6 is marked “B”; a value between 6 and 20 is marked “C”.

SMILES | DSLS (ΔTagg) [1] | TECC (test agent AUC divided by VX-809 AUC) [2]
[2H]C([2H])([2H])n1nc2nc1-c1cc(ccc1F)Oc1c(F)cc3[nH]ccc3c1CCC(=O)N(C)CC(C)(C)CCCC2(C)c1cccc(CCC(=O)O)c1 (single isomer, unassigned) [Compound 77A, 3-[3-[23,29-difluoro-6,10,10,12-tetramethyl-13-oxo-3-(trideuteriomethyl)-25-oxa-3,4,12,20,31-pentazapentacyclo[24.3.1.12,5.016,24.017,21]-hentriaconta-1(30),2(31),4,16,18,21,23,26,28-nonaen-6-yl]phenyl]propanoic acid] | C (a value greater than 10 °C and less than or equal to 25 °C is marked “C”) | C (a value between 6 and 20 is marked “C”)
CC1(C)CCCC(C)(c2cccc(CCC(=O)O)c2)c2cnc([nH]2)-c2cc(ccc2F)Oc2c(F)cc3[nH]ccc3c2CCC(=O)NC1 (single isomer, unassigned) [Compound 40A, 3-[3-(23,29-difluoro-6,10,10-trimethyl-13-oxo-25-oxa-3,12,20,31-tetrazapentacyclo-[24.3.1.12,5.016,24.017,21]hentriaconta-1(30),2,4,16,18,21,23,26,28-nonaen-6-yl)phenyl]propanoic acid] | A (an ΔTagg value less than or equal to 5 °C is marked “A”) | A (a TECC value less than 3 is marked “A”)
CC1(c2cccc(CCC(=O)O)c2)CCCC(=O)CNC(=O)CCc2c(c(F)cc3[nH]ccc23)Oc2ccc(F)c(c2)-c2ncc1[nH]2 (stereo not drawn) [Compound 107, 3-[3-(23,29-Difluoro-6-methyl-10,13-dioxo-25-oxa-3,12,20,31-tetrazapentacyclo[24.3.1.12,5.016,24.017,21]hentriaconta-1(30),2,4,16,18,21,23,26,28-nonaen-6-yl)phenyl]propanoic acid] | C (a value greater than 10 °C and less than or equal to 25 °C is marked “C”) | B (a value between 3 and 6 is marked “B”)
Cn1nc2nc1-c1cc(ccc1F)Oc1c(F)cc3[nH]ccc3c1COC(=O)NC(C)(C)CCCCC2(C)c1ccccc1 (stereo not drawn) [Compound 102, 23,29-difluoro-3,6,11,11-tetramethyl-6-phenyl-14,25-dioxa-3,4,12,20,31-pentazapentacyclo[24.3.1.12,5.016,24.017,21]hentriaconta-1(30),2(31),4,16,18,21,23,26,28-nonaen-13-one] | B (a value above 5 °C and less than or equal to 10 °C is marked “B”) | B (a value between 3 and 6 is marked “B”)
[2H]C([2H])([2H])n1nc2nc1-c1cc(ccc1F)Oc1c(F)cc3[nH]ccc3c1CCC(=O)NCC(C)(C)CCCC2(C)c1cccc(CCC(=O)O)c1 (single isomer, unassigned) [Compound 76B, 3-[3-[23,29-difluoro-6,10,10-trimethyl-13-oxo-3-(trideuteriomethyl)-25-oxa-3,4,12,20,31-pentazapentacyclo[24.3.1.12,5.016,24.017,21]hentriaconta-1(30),2(31),4,16,18,21,23,26,28-nonaen-6-yl]phenyl]propanoic acid] | C (a value greater than 10 °C and less than or equal to 25 °C is marked “C”) | C (a value between 6 and 20 is marked “C”)
CN1CCCc2c(c(F)cc3[nH]ccc23)Oc2ccc(F)c(c2)-c2ncc([nH]2)C(C)(c2cccc(CCC(=O)O)c2)CCCOC1=O (stereo not drawn) [Compound 84, 3-[3-(23,29-Difluoro-6,12-dimethyl-11-oxo-10,25-dioxa-3,12,20,31-tetrazapentacyclo[24.3.1.12,5.016,24.017,21]hentriaconta-1(30),2,4,16(24),17(21),18,22,26,28-nonaen-6-yl)phenyl]propanoic acid] | C (a value greater than 10 °C and less than or equal to 25 °C is marked “C”) | B (a value between 3 and 6 is marked “B”)
CN1CC(=O)CCCCCC(C)(c2cccc(CCC(=O)O)c2)c2cnc([nH]2)-c2cc(ccc2F)Oc2c(F)cc3[nH]ccc3c2CC1=O (stereo not drawn) [Compound 113, 3-[3-(24,30-Difluoro-6,14-dimethyl-12,15-dioxo-26-oxa-3,14,21,32-tetrazapentacyclo[25.3.1.12,5.017,25.018,22]dotriaconta-1(30),2,4,17(25),18(22),19,23,27(31),28-nonaen-6-yl)phenyl]propanoic acid] | C (a value greater than 10 °C and less than or equal to 25 °C is marked “C”) | A (a TECC value less than 3 is marked “A”)
C[C@@H](Cc1cccc([C@@]2(C)CCCCC(C)(C)CN(C)C(=O)Cc3c(c(F)cc4[nH]ccc34)Oc3ccnc(c3)-c3nc2nn3C)c1)C(=O)O [Compound 121, (2S)-3-[3-[(6R)-23-fluoro-3,6,11,11,13-pentamethyl-14-oxo-25-oxa-3,4,13,20,29,31-hexazapentacyclo[24.3.1.12,5.016,24.017,21]hentriaconta-1(30),2(31),4,16,18,21,23,26,28-nonaen-6-yl]phenyl]-2-methyl-propanoic acid] | C (a value greater than 10 °C and less than or equal to 25 °C is marked “C”) | A (a TECC value less than 3 is marked “A”)
CN1CC(C)(C)CCCC(C)(c2cccc(CC(=O)O)c2)c2cnc([nH]2)-c2cc(ccc2F)Oc2c(F)cc3[nH]ccc3c2CCC1=O (single isomer, unassigned) [Compound 65A, 2-[3-(23,29-difluoro-6,10,10,12-tetramethyl-13-oxo-25-oxa-3,12,20,31-tetrazapentacyclo-[24.3.1.12,5.016,24.017,21]hentriaconta-1(30),2,4,16,18,21,23,26,28-nonaen-6-yl)phenyl]acetic acid] | A (an ΔTagg value less than or equal to 5 °C is marked “A”) | A (a TECC value less than 3 is marked “A”)
CC1(c2cccc(CCC(=O)O)c2)CC(=O)NCCCCCc2c(c(F)cc3[nH]ccc23)Oc2ccc(F)c(c2)-c2ncc1[nH]2 (stereo not drawn) [Compound 26, 3-[3-(22,28-Difluoro-6-methyl-8-oxo-24-oxa-3,9,19,30-tetrazapentacyclo[23.3.1.12,5.015,23.016,20]triaconta-1(29),2,4,15,17,20,22,25,27-nonaen-6-yl)phenyl]propanoic acid] | C (a value greater than 10 °C and less than or equal to 25 °C is marked “C”) | B (a value between 3 and 6 is marked “B”)
COCCONC(=O)CCc1cccc(C2(C)CCCC(C)(C)CN(C)C(=O)CCc3c(c(F)cc4[nH]ccc34)Oc3ccc(F)c(c3)-c3ncc2[nH]3)c1 (single isomer, unassigned) [Compound 57, 3-[3-(23,29-difluoro-6,10,10,12-tetramethyl-13-oxo-25-oxa-3,12,20,31-tetrazapentacyclo[24.3.1.12,5.016,24.017,21]hentriaconta-1(30),2,4,16,18,21,23,26,28-nonaen-6-yl)phenyl]-N-(2-methoxyethoxy)propanamide] | B (a value above 5 °C and less than or equal to 10 °C is marked “B”) | B (a value between 3 and 6 is marked “B”)
CC1(c2cccc(CCC(=O)O)c2)CCCCCC(O)CNC(=O)Cc2c(c(F)cc3[nH]ccc23)Oc2ccc(F)c(c2)-c2ncc1[nH]2 (stereo not drawn) [Compound 108, 3-[3-(24,30-Difluoro-12-hydroxy-6-methyl-15-oxo-26-oxa-3,14,21,32-tetrazapentacyclo[25.3.1.12,5.017,25.018,22]dotriaconta-1(31),2,4,17,19,22,24,27,29-nonaen-6-yl)phenyl]propanoic acid] | C (a value greater than 10 °C and less than or equal to 25 °C is marked “C”) | A (a TECC value less than 3 is marked “A”)
